Data as given in ChEMBL document CHEMBL4340547, “Synthesis and SAR development of quinoline analogs as novel P2X7 receptor antagonists” (Bioorg Med Chem Lett, 2019).

Experiments:
P2X purinoceptor 7 [1] = biological target: T1, P2X purinoceptor 7 (Mus musculus, UniProt Q9Z1M0); assay: Antagonist activity at mouse P2X7 receptor assessed as inhibition of BzATP-induced YO PRO dye uptake preincubated for 20 mins followed by YO PRO dye and BzATP addition measured after 30 mins by fluorescence assay
T1 sequence (Q9Z1M0 whole entry): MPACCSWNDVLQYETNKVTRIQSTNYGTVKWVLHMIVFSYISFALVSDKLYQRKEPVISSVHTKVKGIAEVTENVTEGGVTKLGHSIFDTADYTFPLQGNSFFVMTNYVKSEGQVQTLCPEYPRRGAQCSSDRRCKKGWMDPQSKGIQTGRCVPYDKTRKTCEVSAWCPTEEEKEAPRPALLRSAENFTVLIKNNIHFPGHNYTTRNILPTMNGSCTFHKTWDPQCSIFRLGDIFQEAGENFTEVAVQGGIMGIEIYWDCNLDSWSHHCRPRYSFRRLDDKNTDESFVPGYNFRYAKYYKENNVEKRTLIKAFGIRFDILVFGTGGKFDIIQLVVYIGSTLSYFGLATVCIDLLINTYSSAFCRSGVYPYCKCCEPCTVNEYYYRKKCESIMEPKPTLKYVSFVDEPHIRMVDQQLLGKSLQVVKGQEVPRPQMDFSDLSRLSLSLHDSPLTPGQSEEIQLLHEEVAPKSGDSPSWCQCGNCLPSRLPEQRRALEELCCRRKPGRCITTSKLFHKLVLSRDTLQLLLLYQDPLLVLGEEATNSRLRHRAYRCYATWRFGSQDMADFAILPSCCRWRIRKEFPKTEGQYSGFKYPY

P2X purinoceptor 7 [2] = biological target: T2, P2X purinoceptor 7 (Rattus norvegicus, UniProt Q64663); assay: Antagonist activity at rat P2X7 receptor assessed as inhibition of BzATP-induced YO PRO dye uptake preincubated for 20 mins followed by YO PRO dye and BzATP addition measured after 30 mins by fluorescence assay
T2 sequence (Q64663 whole entry): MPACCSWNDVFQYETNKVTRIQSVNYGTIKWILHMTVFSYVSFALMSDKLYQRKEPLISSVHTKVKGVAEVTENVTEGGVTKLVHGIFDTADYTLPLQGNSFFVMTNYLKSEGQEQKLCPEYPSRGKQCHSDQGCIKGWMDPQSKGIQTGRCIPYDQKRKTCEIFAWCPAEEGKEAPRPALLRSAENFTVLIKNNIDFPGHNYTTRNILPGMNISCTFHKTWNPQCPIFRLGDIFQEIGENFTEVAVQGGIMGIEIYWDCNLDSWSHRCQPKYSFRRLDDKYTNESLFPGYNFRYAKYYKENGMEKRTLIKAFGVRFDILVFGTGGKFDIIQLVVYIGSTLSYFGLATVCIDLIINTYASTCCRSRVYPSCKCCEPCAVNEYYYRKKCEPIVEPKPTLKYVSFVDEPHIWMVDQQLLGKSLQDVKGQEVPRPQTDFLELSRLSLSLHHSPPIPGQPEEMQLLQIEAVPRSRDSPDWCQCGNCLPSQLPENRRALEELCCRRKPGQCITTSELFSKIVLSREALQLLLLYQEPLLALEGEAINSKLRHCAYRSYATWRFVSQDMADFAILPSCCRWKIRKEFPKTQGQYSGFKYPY

[3] = Protein binding in human plasma; assay type: ADME, cell-free; settings: read-out: PPB
[4] = Dose normalized AUC in mouse at 0.2 mg/kg, iv; assay type: ADME, organism-based; settings: in vivo
[5] = biological target: Voltage-gated inwardly rectifying potassium channel KCNH2 (Homo sapiens, UniProt Q12809); assay: Activity at human ERG
P2X purinoceptor 7 [6] = biological target: T3, P2X purinoceptor 7 (Homo sapiens, UniProt Q99572); assay: Antagonist activity at human P2X7 receptor expressed in HEK293 cells assessed as inhibition of BzATP-induced YO PRO dye uptake preincubated for 20 mins followed by YO PRO dye and BzATP addition measured after 30 mins by fluorescence assay; assay type: cell-based
T3 sequence (Q99572 whole entry): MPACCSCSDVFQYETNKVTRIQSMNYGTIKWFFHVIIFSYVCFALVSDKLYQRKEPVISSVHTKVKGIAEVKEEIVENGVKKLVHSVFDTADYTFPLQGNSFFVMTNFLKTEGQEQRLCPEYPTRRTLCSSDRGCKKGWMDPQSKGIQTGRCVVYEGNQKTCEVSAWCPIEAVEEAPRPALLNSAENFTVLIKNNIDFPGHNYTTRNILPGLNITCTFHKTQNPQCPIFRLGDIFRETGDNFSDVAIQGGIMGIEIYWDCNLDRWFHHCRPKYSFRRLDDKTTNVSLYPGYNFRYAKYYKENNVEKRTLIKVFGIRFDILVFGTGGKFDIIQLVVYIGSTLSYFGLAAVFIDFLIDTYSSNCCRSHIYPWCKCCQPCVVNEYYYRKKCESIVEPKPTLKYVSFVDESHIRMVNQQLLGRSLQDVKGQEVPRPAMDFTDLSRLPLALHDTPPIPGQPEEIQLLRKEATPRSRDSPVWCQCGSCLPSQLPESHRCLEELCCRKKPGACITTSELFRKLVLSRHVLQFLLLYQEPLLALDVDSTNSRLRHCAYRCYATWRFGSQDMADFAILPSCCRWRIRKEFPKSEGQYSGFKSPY

[7] = Clearance in mouse at 0.2 mg/kg, iv or 0.5 mg/kg, po; assay type: ADME, organism-based; settings: in vivo
MDR [8] = assay: Efflux ratio of apparent permeability in MDCK cells expressing MDR; assay type: ADME, cell-based, Canis lupus familiaris; settings: dog, MDCK-MDR1
[9] = Dose normalized Cmax in mouse at 0.2 mg/kg, iv; assay type: ADME, organism-based; settings: in vivo
[10] = Protein binding in rat plasma assessed as unbound fraction; assay type: ADME, cell-free
[11] = Dose normalized AUC in mouse at 0.5 mg/kg, po; assay type: ADME, organism-based; settings: in vivo
[12] = Protein binding in rat plasma; assay type: ADME, cell-free; settings: read-out: PPB
[13] = Protein binding in mouse plasma assessed as unbound fraction; assay type: ADME, cell-free
[14] = Protein binding in mouse plasma; assay type: ADME, cell-free; settings: read-out: PPB
[15] = AUC in mouse brain at 5 mg/kg, po; assay type: ADME, organism-based
[16] = Protein binding in mouse plasma assessed as unbound fraction at 5 mg/kg, po; assay type: ADME, organism-based
[17] = Protein binding in human plasma assessed as unbound fraction; assay type: ADME, cell-free
[18] = Unbound brain to plasma concentration ratio in mouse at 5 mg/kg, po; assay type: ADME, organism-based; settings: read-out: K(p,uu,brain)
[19] = Protein binding in mouse brain assessed as unbound fraction at 5 mg/kg, po; assay type: ADME, organism-based
[20] = Intrinsic clearance in rat liver microsomes; assay type: ADME, Microsome; settings: read-out: CLH
[21] = Dose normalized Cmax in mouse at 0.5 mg/kg, po; assay type: ADME, organism-based; settings: in vivo
[22] = Terminal half life in mouse at 0.2 mg/kg, iv or 0.5 mg/kg, po; assay type: ADME, organism-based; settings: in vivo, read-out: beta t1/2 (converted)
[23] = AUC in mouse plasma at 5 mg/kg, po; assay type: ADME, organism-based
P2X purinoceptor 7 [24] = biological target: T3, P2X purinoceptor 7; assay: Antagonist activity at P2X7R in LPS-stimulated human THP1 cells assessed as inhibition of BzATP-induced IL-1beta release preincubated for 30 mins followed by BzATP stimulation and measured after 30 mins by sandwich ELISA
MDR [25] = assay: Apparent permeability across apical to basolateral side in MDCK cells expressing MDR; assay type: ADME, cell-based, Canis lupus familiaris; settings: dog, MDCK-MDR1
[26] = Volume of distribution in mouse at 0.2 mg/kg, iv or 0.5 mg/kg, po; assay type: ADME, organism-based; settings: in vivo
[27] = Oral bioavailability in mouse at 0.5 mg/kg; assay type: ADME, organism-based; settings: in vivo
[28] = Intrinsic clearance in mouse liver microsomes; assay type: ADME, Microsome; settings: read-out: CLH
[29] = Intrinsic clearance in human liver microsomes; assay type: ADME, Microsome; settings: read-out: CLH

Chain of Voltage-gated inwardly rectifying potassium channel KCNH2 (Q12809 whole entry): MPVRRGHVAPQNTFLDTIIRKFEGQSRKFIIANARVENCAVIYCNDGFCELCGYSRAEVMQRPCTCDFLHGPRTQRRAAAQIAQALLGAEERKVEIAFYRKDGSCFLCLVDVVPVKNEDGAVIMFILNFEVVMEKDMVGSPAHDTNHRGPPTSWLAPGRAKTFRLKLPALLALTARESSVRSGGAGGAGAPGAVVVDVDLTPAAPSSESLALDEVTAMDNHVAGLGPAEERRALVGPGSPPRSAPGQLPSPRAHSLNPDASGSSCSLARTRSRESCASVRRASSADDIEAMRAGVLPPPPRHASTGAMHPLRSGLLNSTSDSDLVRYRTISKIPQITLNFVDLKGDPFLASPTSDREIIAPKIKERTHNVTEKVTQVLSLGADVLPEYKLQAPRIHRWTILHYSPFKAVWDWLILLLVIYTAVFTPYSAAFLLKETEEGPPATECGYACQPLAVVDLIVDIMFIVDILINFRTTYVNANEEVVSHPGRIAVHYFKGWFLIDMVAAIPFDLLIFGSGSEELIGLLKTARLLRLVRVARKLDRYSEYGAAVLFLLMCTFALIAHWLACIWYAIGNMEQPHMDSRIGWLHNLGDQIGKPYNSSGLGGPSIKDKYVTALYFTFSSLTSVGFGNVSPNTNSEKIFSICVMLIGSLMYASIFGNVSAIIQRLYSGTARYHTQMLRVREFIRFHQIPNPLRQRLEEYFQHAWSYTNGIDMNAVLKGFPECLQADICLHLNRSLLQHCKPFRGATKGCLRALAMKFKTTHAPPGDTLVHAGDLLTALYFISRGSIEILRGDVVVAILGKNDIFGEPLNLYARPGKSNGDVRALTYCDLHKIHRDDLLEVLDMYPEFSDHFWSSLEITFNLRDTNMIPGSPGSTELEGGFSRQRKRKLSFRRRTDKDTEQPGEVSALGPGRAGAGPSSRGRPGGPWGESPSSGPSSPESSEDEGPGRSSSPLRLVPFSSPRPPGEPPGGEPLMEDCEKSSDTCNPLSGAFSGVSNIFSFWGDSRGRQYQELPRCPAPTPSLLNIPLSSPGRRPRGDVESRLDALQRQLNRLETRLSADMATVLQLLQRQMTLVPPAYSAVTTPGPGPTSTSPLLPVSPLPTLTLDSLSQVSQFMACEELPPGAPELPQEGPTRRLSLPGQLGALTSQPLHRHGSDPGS

- IC50 (P2X purinoceptor 7 [1]): 6.73 µM
- IC50 (P2X purinoceptor 7 [2]): 9.4 µM
- fraction unbound [3]: 0.03 to 0.1
- AUC/dose [4]: 451 ng·h/mL
- IC50 (P2X purinoceptor 7 [6]): 0.018 µM
- clearance [7]: 36.8 mL/min/kg
- efflux ratio (MDR [8]): 6.3
- Cmax/dose [9]: 738 ng/mL
- fraction unbound [10]: 0.089
- AUC/dose [11]: 143 ng·h/mL
- fraction unbound [12]: 0.03 to 0.1
- fraction unbound [13]: 0.079
- fraction unbound [14]: 0.03 to 0.1
- AUC [15]: 12.6 ng·h/mL
- fraction unbound [16]: 0.079
- fraction unbound [17]: 0.098
- Kp uu [18]: 0.13
- fraction unbound [19]: 0.11
- microsomal CLint [20]: 23 µL/min/mg
- Cmax/dose [21]: 160 ng/mL
- half-life [22]: 25.8 min
- AUC [23]: 136 ng·h/mL
- IC50 (P2X purinoceptor 7 [24]): 0.0267 µM
- Papp A→B (MDR [25]): 8.9 to 9 ×10⁻⁶ cm/s
- Vd [26]: 1.19 L/kg
- bioavailability [27]: 32%
- microsomal CLint [28]: 34 µL/min/mg
- microsomal CLint [29]: 20 µL/min/mg
Structure (SMILES): O=C(NCC1(O)CCCC(F)(F)C1)c1c(Cl)ccc2nc(N3CC[C@H](F)C3)ccc12 (some centres undefined)
- Activity [5]: > 30 µM
